Assay results from PubChem BioAssay AID2060353 (Molecular Pharmacology Branch, DTP, NCI, 2025).

Tested on: 521955-158-R2-J5-PDC spheroids with stroma, growth inhibition
Experiment: Anticancer human tumor 521955-158-R2-J5-PDC patient-derived pancreatic carcinoma cell line growth inhibition [TAK]
Settings: for IC50: curve of first compound; for viability, T/C: stronger effect = lower value
Text: Combinatorial screen of targeted agents with TAK-243 and ipatasertib in multi-cell type tumor spheroids
A high-throughput screen of multi-cell type tumor spheroids was designed to identify active combinations of targeted small molecules and TAK-243 or ipatasertib. Complex spheroids include a stromal component modeled by human endothelial cells (HUVEC) and fibroblasts modeled by human mesenchymal stem cells (MSCs). The concentration ranges selected for each drug and investigational agent were based upon clinically achievable concentrations if the clinical Cmax of the agent was known.
Compounds. The drugs and investigational agents: TAK-243 (785004), ipatasertib (767898), everolimus (733504), selumetinib (741078), bortezomib (756655), trametinib (758246), ixazomib (758254), vemurafenib (761431), dabrafenib (764134), sapanisertib (764658), alpelisib (765974), and copanlisib (816437), were obtained from the National Cancer Institute (NCI) Developmental Therapeutics Program Chemical Repository. The FDA-approved anticancer drug set is available from the NCI Developmental Therapeutics Program. […] The stock solutions were prepared in dimethyl sulfoxide (DMSO, Sigma-Aldrich, St. Louis, MO, cat. D2650) at 800-fold the tested concentration and stored at -70 degrees C prior to their use. All drugs and investigational agents were tested over a range starting from a high concentration at or near the clinical Cmax and decreasing in half-log increments. If the clinical Cmax for an agent had not been determined, the highest concentration tested was 10 microM.
NCI60 Cell Culture. NCI60 cell lines were obtained from the NCI Developmental Therapeutics Program Tumor Repository. For each lot of cells, the Repository performed Applied Biosystems AmpFLSTR Identifiler testing with PCR amplification to confirm consistency with the published Identifier STR profile for each cell line. Cells were kept in continuous culture for no more than 20 passages. The optimal seeding densities for each of the cell lines at each time point assessed were determined prior to performing the concentration response studies. Briefly, the NCI60 human tumor lines were grown as monolayers in RPMI 1640 medium supplemented with 10% FBS and 2 mmol/L L-glutamine.
An additional 2 lines were from the NCI60 cell line panel including melanomas, MALME-3M and SK-MEL-2. Pooled donor human umbilical vein endothelial cells (HUVEC, Lonza, cat. CC-2519) and human mesenchymal stem cells (hMSC, Lonza, cat. PT-2501) were purchased from Lonza (Walkersville, MD).
PDMR cell lines were grown in complete medium (DC medium): Dulbecco's modified Eagle's medium (DMEM)/F12 supplemented with 5% fetal bovine serum (FBS), 2 mM L-glutamine, 100 U/mL penicillin and 100 µg/ml streptomycin, 0.4 µg/ml hydrocortisone, 10 ng/ml epidermal growth factor (EGF) recombinant human protein, 24 µg/mL adenine, and 0.1 mg/mL primocin. During culture from frozen stock vials, PDMR cells were cultured in the same medium containing 10 µM Y-27632 (see Table 3). The PDCs were cultured in complete DMEM/F12 media without 10 microM Y-27632 dihydrochloride for at least two passages prior to the screen. The pooled donor HUVEC and hMSC were cultured in endothelial cell growth medium 2 (PromoCell, Heidelberg, Germany, cat. C-22011) and mesenchymal stem cell growth medium 2 (PromoCell, cat. C-28009), respectively. For all experiments, HUVEC and hMSC were used at passages </=5.
For the pre-screen, cell seeding densities were determined from a titration spanning the range from 5,000 to 313 cells per well. The mct-spheroids including 60% malignant cells, 25% HUVEC and 15% MSC dispensed as a mixture into U-bottom Ultra-Low Attachment 384-well plates (Corning, NY)
High-throughput Drug Combination Screening.
Prior to their inoculation into 384-well plates, malignant cells, HUVEC, and hMSC were removed from T flasks using TrypLE express (Thermo Fisher Scientific, cat. 12605036) and harvested by centrifugation for 5 min at 233 x g. […]

[1] = second compound 0.3 µM, first compound 0.0316 µM
[2] = second compound 0.3 µM, first compound 0.1 µM
[3] = second compound 0.3 µM, first compound 0.316 µM
[4] = second compound 0.3 µM, first compound 1 µM
[5] = second compound 0.3 µM, first compound 3.16 µM
[6] = second compound 0.3 µM, first compound 10 µM
[7] = second compound 0.949 µM, first compound 0.0316 µM
[8] = second compound 0.949 µM, first compound 0.1 µM
[9] = second compound 0.949 µM, first compound 0.316 µM
[10] = second compound 0.949 µM, first compound 1 µM
[11] = second compound 0.949 µM, first compound 3.16 µM
[12] = second compound 0.949 µM, first compound 10 µM
[13] = second compound 3 µM, first compound 0.0316 µM
[14] = second compound 3 µM, first compound 0.1 µM
[15] = second compound 3 µM, first compound 0.316 µM
[16] = second compound 3 µM, first compound 1 µM
[17] = second compound 3 µM, first compound 3.16 µM
[18] = second compound 3 µM, first compound 10 µM
[19] = second compound 9.49 µM, first compound 0.0316 µM
[20] = second compound 9.49 µM, first compound 0.1 µM
[21] = second compound 9.49 µM, first compound 0.316 µM
[22] = second compound 9.49 µM, first compound 1 µM
[23] = second compound 9.49 µM, first compound 3.16 µM
[24] = second compound 9.49 µM, first compound 10 µM
[25] = second compound 30 µM, first compound 0.0316 µM
[26] = second compound 30 µM, first compound 0.1 µM
[27] = second compound 30 µM, first compound 0.316 µM
[28] = second compound 30 µM, first compound 1 µM
[29] = second compound 30 µM, first compound 3.16 µM
[30] = second compound 30 µM, first compound 10 µM
[31] = second compound 0.3 µM, first compound 0.000316 µM
[32] = second compound 0.3 µM, first compound 0.001 µM
[33] = second compound 0.3 µM, first compound 0.00316 µM
[34] = second compound 0.3 µM, first compound 0.01 µM
[35] = second compound 0.949 µM, first compound 0.000316 µM
[36] = second compound 0.949 µM, first compound 0.001 µM
[37] = second compound 0.949 µM, first compound 0.00316 µM
[38] = second compound 0.949 µM, first compound 0.01 µM
[39] = second compound 3 µM, first compound 0.000316 µM
[40] = second compound 3 µM, first compound 0.001 µM
[41] = second compound 3 µM, first compound 0.00316 µM
[42] = second compound 3 µM, first compound 0.01 µM
[43] = second compound 9.49 µM, first compound 0.000316 µM
[44] = second compound 9.49 µM, first compound 0.001 µM
[45] = second compound 9.49 µM, first compound 0.00316 µM
[46] = second compound 9.49 µM, first compound 0.01 µM
[47] = second compound 30 µM, first compound 0.000316 µM
[48] = second compound 30 µM, first compound 0.001 µM
[49] = second compound 30 µM, first compound 0.00316 µM
[50] = second compound 30 µM, first compound 0.01 µM
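Note: spheroids exposed to drugs for seven days before readout.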
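Throughout, for viability, T/C: 100% = DMSO vehicle control viability.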

CC(C)(C)c1nc(-c2cccc(NS(=O)(=O)c3c(F)cccc3F)c2F)c(-c2ccnc(N)n2)s1 + CC(C)NCC(C(=O)N1CCN(c2ncnc3c2C(C)CC3O)CC1)c1ccc(Cl)cc1
IC50 (second compound 0.3 µM): > 10 µM | IC50 (second compound 0.949 µM): 9.73 µM | IC50 (second compound 3 µM): 6.27 µM | IC50 (second compound 9.49 µM): 4.96 µM | IC50 (second compound 30 µM): 1.07 µM | viability, T/C [1]: 115% | viability, T/C [2]: 135% | viability, T/C [3]: 135% | viability, T/C [4]: 134% | viability, T/C [5]: 96.8% | viability, T/C [6]: 60.3% | viability, T/C [7]: 116% | viability, T/C [8]: 117% | viability, T/C [9]: 109% | viability, T/C [10]: 100% | viability, T/C [11]: 79.5% | viability, T/C [12]: 49.1% | viability, T/C [13]: 89.8% | viability, T/C [14]: 93.8% | viability, T/C [15]: 72.2% | viability, T/C [16]: 92.1% | viability, T/C [17]: 75.4% | viability, T/C [18]: 32.8% | viability, T/C [19]: 92.3% | viability, T/C [20]: 83.9% | viability, T/C [21]: 65.1% | viability, T/C [22]: 66.2% | viability, T/C [23]: 71.4% | viability, T/C [24]: 33.4% | viability, T/C [25]: 59.7% | viability, T/C [26]: 56.7% | viability, T/C [27]: 50.9% | viability, T/C [28]: 51.2% | viability, T/C [29]: 44.8% | viability, T/C [30]: 28.7%

CC(C)CC(NC(=O)CNC(=O)c1cc(Cl)ccc1Cl)B1OC(=O)CC(CC(=O)O)(C(=O)O)O1 (stereo not given) + CC(C)NCC(C(=O)N1CCN(c2ncnc3c2C(C)CC3O)CC1)c1ccc(Cl)cc1
IC50 (second compound 0.3 µM): 0.039 µM | IC50 (second compound 0.949 µM): 0.03 µM | IC50 (second compound 3 µM): 0.0268 µM | IC50 (second compound 9.49 µM): 0.0257 µM | IC50 (second compound 30 µM): 0.0152 µM | viability, T/C [31]: 129% | viability, T/C [32]: 114% | viability, T/C [33]: 104% | viability, T/C [34]: 116% | viability, T/C [1]: 59% | viability, T/C [2]: 8.82% | viability, T/C [35]: 85.2% | viability, T/C [36]: 98.6% | viability, T/C [37]: 87.6% | viability, T/C [38]: 94.2% | viability, T/C [7]: 48.1% | viability, T/C [8]: 6.65% | viability, T/C [39]: 77.8% | viability, T/C [40]: 78% | viability, T/C [41]: 87% | viability, T/C [42]: 89.6% | viability, T/C [13]: 44.4% | viability, T/C [14]: 6.08% | viability, T/C [43]: 123% | viability, T/C [44]: 103% | viability, T/C [45]: 115% | viability, T/C [46]: 122% | viability, T/C [19]: 35.7% | viability, T/C [20]: 4.11% | viability, T/C [47]: 69.3% | viability, T/C [48]: 69.1% | viability, T/C [49]: 72.4% | viability, T/C [50]: 66.4% | viability, T/C [25]: 21.3% | viability, T/C [26]: 2.31%

CC(C)n1nc(-c2ccc3oc(N)nc3c2)c2c(N)ncnc21 + CC(C)NCC(C(=O)N1CCN(c2ncnc3c2C(C)CC3O)CC1)c1ccc(Cl)cc1
IC50 (second compound 0.3 µM): 0.032 µM | IC50 (second compound 0.949 µM): 0.0349 µM | IC50 (second compound 3 µM): 0.0177 µM | IC50 (second compound 9.49 µM): 0.0086 µM | IC50 (second compound 30 µM): 0.000516 µM | viability, T/C [31]: 106% | viability, T/C [32]: 96.9% | viability, T/C [33]: 85% | viability, T/C [34]: 60.4% | viability, T/C [1]: 54.8% | viability, T/C [2]: 36.5% | viability, T/C [35]: 78.3% | viability, T/C [36]: 69.3% | viability, T/C [37]: 65.7% | viability, T/C [38]: 66.9% | viability, T/C [7]: 49.6% | viability, T/C [8]: 36% | viability, T/C [39]: 83.5% | viability, T/C [40]: 77.8% | viability, T/C [41]: 84.8% | viability, T/C [42]: 62.3% | viability, T/C [13]: 37.6% | viability, T/C [14]: 28.2% | viability, T/C [43]: 110% | viability, T/C [44]: 102% | viability, T/C [45]: 79.2% | viability, T/C [46]: 44.2% | viability, T/C [19]: 29.1% | viability, T/C [20]: 19.3% | viability, T/C [47]: 52.1% | viability, T/C [48]: 47.1% | viability, T/C [49]: 37.5% | viability, T/C [50]: 17.1% | viability, T/C [25]: 10.4% | viability, T/C [26]: 9.55%

CCCS(=O)(=O)Nc1ccc(F)c(C(=O)c2c[nH]c3ncc(-c4ccc(Cl)cc4)cc23)c1F + CC(C)NCC(C(=O)N1CCN(c2ncnc3c2C(C)CC3O)CC1)c1ccc(Cl)cc1
IC50 (second compound 0.3 µM): > 100 µM | IC50 (second compound 0.949 µM): > 100 µM | IC50 (second compound 3 µM): 15.9 µM | IC50 (second compound 9.49 µM): 6.34 µM | IC50 (second compound 30 µM): 1.14 µM | viability, T/C [3]: 107% | viability, T/C [4]: 134% | viability, T/C [5]: 108% | viability, T/C [6]: 165% | viability, T/C (second compound 0.3 µM, first compound 31.6 µM): 18.9% | viability, T/C (second compound 0.3 µM, first compound 100 µM): 122% | viability, T/C [9]: 108% | viability, T/C [10]: 123% | viability, T/C [11]: 107% | viability, T/C [12]: 103% | viability, T/C (second compound 0.949 µM, first compound 31.6 µM): 22.2% | viability, T/C (second compound 0.949 µM, first compound 100 µM): 111% | viability, T/C [15]: 100% | viability, T/C [16]: 99.4% | viability, T/C [17]: 99.2% | viability, T/C [18]: 70.1% | viability, T/C (second compound 3 µM, first compound 31.6 µM): 19.9% | viability, T/C (second compound 3 µM, first compound 100 µM): 12.1% | viability, T/C [21]: 84.8% | viability, T/C [22]: 89.8% | viability, T/C [23]: 69.9% | viability, T/C [24]: 36.1% | viability, T/C (second compound 9.49 µM, first compound 31.6 µM): 14.2% | viability, T/C (second compound 9.49 µM, first compound 100 µM): 6.73% | viability, T/C [27]: 51.7% | viability, T/C [28]: 50.9% | viability, T/C [29]: 40.4% | viability, T/C [30]: 5.79% | viability, T/C (second compound 30 µM, first compound 31.6 µM): 4.82% | viability, T/C (second compound 30 µM, first compound 100 µM): 4.7%
